Some test systems named below: ACHN; CAKI-1; CCRF-CEM; HCT-116; HOP-92; IGROV-1; K562; KM12; Malme-3M; NCI-H23; NCI-H460; NCI/ADR-RES; OVCAR-3; OVCAR-8; RPMI-8226; SF-268; SF-539; SK-MEL-2; SN12C; SR.
Test in all cases: inhibition of tumour cell growth, NCI panel, 48 h

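Exposure lasted 48 hours, with cells grown in 96-well plates and compounds tested at five concentrations. The concentration for 50% growth inhibition is given as GI50.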 Activity calls are given as the source filed them. Rule as the data show it: active = GI50 up to about 1.1 µM and inactive = higher.

Turning to `NC1CCCCC1NCCNC1CCCCC1N` (stereo not given), the GI50 is > 100 µM (inactive) in the assay on ACHN; 82.4 µM (inactive) with CAKI-1; 36.4 µM (inactive) in the assay with CCRF-CEM; 47.5 µM (inactive) in the assay on HCT-116; 41.5 µM (inactive) in the assay on HOP-92; 75.7 µM (inactive) in the assay with IGROV-1. Moreover, the GI50 was 49.2 µM (inactive) in the assay on K562; > 100 µM (inactive) with KM12; > 100 µM (inactive) in the assay with Malme-3M; 29.9 µM (inactive) in the assay with NCI-H23; > 100 µM (inactive) in the assay with NCI-H460; > 100 µM (inactive) with NCI/ADR-RES. The GI50 with OVCAR-3, with OVCAR-8, in the assay with RPMI-8226, in the assay with SF-268, with SF-539 and in the assay on SK-MEL-2 was > 100 µM (inactive) each time. Besides, the GI50 in the assay with SN12C and with SR was > 100 µM (inactive) throughout.
Take `O=[N+]([O-])c1ccc2c(c1)n1c(N3CCCC3)[n+]3ccccc3c1c1c3ccccn3c(N3CCCC3)[n+]21.[O-][Cl+3]([O-])([O-])[O-].[O-][Cl+3]([O-])([O-])[O-]`: the GI50 is 10 µM (inactive) in the assay on ACHN; > 100 µM (inactive) with CAKI-1; 21.1 µM (inactive) with CCRF-CEM; > 100 µM (inactive) in the assay with HCT-116; > 100 µM (inactive) in the assay on HOP-92; > 100 µM (inactive) with IGROV-1. Moreover, the GI50 in the assay on K562 was 23.7 µM (inactive); with KM12 it was > 100 µM (inactive); in the assay with Malme-3M, 68.9 µM (inactive); with NCI-H23, > 100 µM (inactive); with NCI-H460, > 100 µM (inactive); in the assay with NCI/ADR-RES, > 100 µM (inactive). Besides, the GI50 in the assay on OVCAR-3 was > 100 µM (inactive); in the assay on OVCAR-8 it was > 100 µM (inactive); in the assay with RPMI-8226, > 100 µM (inactive); with SF-268, 17.5 µM (inactive); in the assay on SF-539, 39.5 µM (inactive); in the assay on SK-MEL-2, > 100 µM (inactive). For the same compound, the GI50 was 51.8 µM (inactive) in the assay on SN12C and > 100 µM (inactive) in the assay on SR.
In the case of `CNC(=O)OCc1c(COC(=O)NC)c(-c2ccc(-c3ccccc3)cc2)n(C)c1C`, the GI50 was 0.493 µM (active) in the assay with ACHN; 0.443 µM (active) in the assay on CAKI-1; 0.502 µM (active) with CCRF-CEM; 2.64 µM (inactive) with HCT-116; 2.99 µM (inactive) with HOP-92; 2.24 µM (inactive) in the assay on IGROV-1. Also, the GI50 with K562 was 0.822 µM (active); in the assay with KM12 it was 8.04 µM (inactive); in the assay with Malme-3M it was 1.15 µM (inactive); with NCI-H23, 2.06 µM (inactive); in the assay with NCI-H460, 0.401 µM (active); in the assay on NCI/ADR-RES, 2.64 µM (inactive). In addition, the GI50 with OVCAR-3 is 2.54 µM (inactive); with OVCAR-8, 2.26 µM (inactive); with RPMI-8226, 0.467 µM (active); in the assay on SF-268, 0.755 µM (active); with SF-539, 1.86 µM (inactive); with SK-MEL-2, 0.494 µM (active). For the same compound, the values for the GI50 with SN12C and in the assay with SR were 0.726 µM (active) and 0.116 µM (active), respectively.
For the compound `CC(NC1=NCCO1)c1ccccc1Cl` (stereo not given), the GI50 is > 100 µM (inactive) in the assay with ACHN; > 100 µM (inactive) in the assay with CAKI-1; > 100 µM (inactive) in the assay on CCRF-CEM; 60.4 µM (inactive) with HCT-116; < 0.01 µM (active) in the assay on HOP-92; > 100 µM (inactive) with IGROV-1. The GI50 with K562, in the assay on KM12, with Malme-3M, in the assay on NCI-H23, in the assay with NCI-H460 and with NCI/ADR-RES was > 100 µM (inactive) each time. Also, the GI50 is > 100 µM (inactive) with OVCAR-3; > 100 µM (inactive) in the assay with OVCAR-8; > 100 µM (inactive) in the assay with RPMI-8226; > 100 µM (inactive) in the assay with SF-268; 27.2 µM (inactive) in the assay with SF-539; > 100 µM (inactive) with SK-MEL-2. The GI50 in the assay on SN12C and with SR was > 100 µM (inactive) throughout.

The values are drawn from ChEMBL document CHEMBL1201862, “PubChem BioAssay data set” (2004).
